The source made the active and inactive calls.
Key:
Type in all cases: functional, organism-based
[1] = system: Bacillus subtilis; assay: Antibacterial activity against Bacillus subtilis at 80 ug/disk
[2] = system: Streptomyces viridochromogenes; assay: Antibacterial activity against Streptomyces viridochromogenes Tu 57 at 80 ug/disk
[3] = system: Escherichia coli; assay: Antibacterial activity against Escherichia coli at 80 ug/disk
[4] = system: Staphylococcus aureus; assay: Antibacterial activity against Staphylococcus aureus at 80 ug/disk
[5] = system: Chlorella vulgaris; assay: Antimicrobial activity against Chlorella vulgaris at 80 ug/disk
[6] = system: Chlorella sorokiniana; assay: Antimicrobial activity against Chlorella sorokiniana at 80 ug/disk
[7] = system: Rhizomucor miehei; assay: Antifungal activity against Mucor miehei at 80 ug/disk
[8] = system: Candida albicans; assay: Antifungal activity against Candida albicans at 80 ug/disk
[9] = system: Artemia; assay: Activity against brine shrimp at 10 ug/mL
[10] = system: Desmodesmus subspicatus; assay: Antimicrobial activity against Scenedesmus subspicatus at 80 ug/disk

Measured: Activity

CC(C)[C@H]1CC[C@@](C)(O)[C@H]2CC(=O)C(CO)=C[C@@H]12
inactive: all assays above

CC1=C[C@H]2[C@@H](C(C)C)CC[C@@](C)(O)[C@H]2CC1=O
inactive: all assays above

CC1=C[C@H]2[C@@H](C(C)(C)O)CC[C@@](C)(O)[C@H]2CC1
inactive: all assays above

C[C@H]1C(=O)C[C@H]2[C@@H](C1O)[C@@H](C(C)(C)O)CC[C@@]2(C)O (stereo not given in full)
inactive: all assays above

From ChEMBL document CHEMBL1142058, “Amorphane sesquiterpenes from a marine Streptomyces sp” (J Nat Prod, 2007)
